# Source: BindingDB's records for doi:10.1016/j.bmc.2003.11.015 (Bristol-Myers Squibb Pharmaceutical Research Institute, 2004)
# Counter-ions that a name gives are not always drawn.
# Tests used:
# [1] = target: D(2) dopamine receptor (Rattus norvegicus, UniProt P61169)
# [2] = target: D(1A) dopamine receptor (Rattus norvegicus, UniProt P18901)
# [3] = target: D(2) dopamine receptor (Homo sapiens, UniProt P14416)
# Chain of D(2) dopamine receptor (Homo sapiens, UniProt P14416) (P14416 whole entry): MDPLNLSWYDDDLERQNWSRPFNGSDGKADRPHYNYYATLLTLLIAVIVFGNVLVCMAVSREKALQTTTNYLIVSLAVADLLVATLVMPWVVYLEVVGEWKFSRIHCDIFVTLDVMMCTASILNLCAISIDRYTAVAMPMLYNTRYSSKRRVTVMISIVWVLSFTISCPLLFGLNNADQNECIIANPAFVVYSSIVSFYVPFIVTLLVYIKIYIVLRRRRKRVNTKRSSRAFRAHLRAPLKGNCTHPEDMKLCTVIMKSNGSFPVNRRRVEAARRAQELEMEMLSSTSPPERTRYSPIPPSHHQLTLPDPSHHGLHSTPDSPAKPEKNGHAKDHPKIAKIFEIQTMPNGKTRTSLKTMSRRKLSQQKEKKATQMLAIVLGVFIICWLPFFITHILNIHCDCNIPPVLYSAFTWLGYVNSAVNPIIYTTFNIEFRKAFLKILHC
# Chain of D(2) dopamine receptor (Rattus norvegicus, UniProt P61169) (P61169 whole entry): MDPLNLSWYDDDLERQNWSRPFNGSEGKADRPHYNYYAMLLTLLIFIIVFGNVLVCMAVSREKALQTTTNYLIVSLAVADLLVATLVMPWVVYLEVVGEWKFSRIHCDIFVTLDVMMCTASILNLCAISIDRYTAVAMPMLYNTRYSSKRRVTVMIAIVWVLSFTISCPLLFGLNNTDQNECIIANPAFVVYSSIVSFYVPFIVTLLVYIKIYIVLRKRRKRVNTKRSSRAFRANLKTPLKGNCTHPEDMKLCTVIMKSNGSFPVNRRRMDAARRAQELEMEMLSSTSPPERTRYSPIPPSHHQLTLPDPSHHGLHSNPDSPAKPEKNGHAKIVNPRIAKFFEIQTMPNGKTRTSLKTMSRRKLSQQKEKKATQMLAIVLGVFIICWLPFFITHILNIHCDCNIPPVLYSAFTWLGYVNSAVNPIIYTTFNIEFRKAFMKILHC
# Chain of D(1A) dopamine receptor (P18901 whole entry): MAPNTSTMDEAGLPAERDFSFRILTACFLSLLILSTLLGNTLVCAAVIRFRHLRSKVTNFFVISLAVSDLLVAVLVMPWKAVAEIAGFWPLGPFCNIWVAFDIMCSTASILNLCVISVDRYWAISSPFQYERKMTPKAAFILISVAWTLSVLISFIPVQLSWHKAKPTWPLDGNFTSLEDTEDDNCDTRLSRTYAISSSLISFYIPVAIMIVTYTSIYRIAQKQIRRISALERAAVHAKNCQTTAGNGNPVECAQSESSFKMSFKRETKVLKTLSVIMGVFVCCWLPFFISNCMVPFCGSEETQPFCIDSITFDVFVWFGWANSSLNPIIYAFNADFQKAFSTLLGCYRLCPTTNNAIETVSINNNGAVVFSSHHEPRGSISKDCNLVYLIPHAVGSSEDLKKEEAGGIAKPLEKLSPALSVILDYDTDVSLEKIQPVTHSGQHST
Compound,Ki [1],Ki [2],Ki [3]
COC(=O)CC1c2cccc3c2[C@@H](CNC3)c2ccc(O)c(O)c21 (mixture of isomers) [(+/-)-7-methoxycarbonylmethyldinapsoline],990 nM,2400 nM,–
Oc1ccc2c(c1O)Cc1cccc3c1[C@H]2CNC3C(F)(F)C(F)(F)C(F)(F)C(F)(F)F (mixture of isomers) [NSC_0],78 nM,340 nM,–
Oc1ccc2c(c1O)Cc1ccc(F)c3c1[C@H]2CNC3 [NSC_0],28 nM,69 nM,–
Oc1cc(Cl)c2c(c1O)Cc1cccc3c1[C@H]2CNC3 (racemic) [CAS_0],16 nM,1500 nM,–
CC1c2cccc3c2[C@@H](CNC3)c2ccc(O)c(O)c21 (mixture of isomers) [(+/-)-7-methyldinapsoline hydrobromide],160 nM,139 nM,–
CCC1c2cccc3c2[C@@H](CNC3)c2ccc(O)c(O)c21 (mixture of isomers) [(+/-)-7-ethyldinapsoline hydrobromide],440 nM,430 nM,–
Oc1ccc2c(c1O)Cc1c(F)ccc3c1C2CNC3 (centres undefined) [NSC_0],170 nM,3000 nM,–
CCc1ccc2c3c1Cc1c(ccc(O)c1O)[C@@H]3CNC2 [6-ethyldinapsoline hydrobromide],–,14 nM,27 nM
CC1NC[C@H]2c3ccc(O)c(O)c3Cc3cccc1c32 (mixture of isomers) [(+/-)-3-methyldinapsoline hydrobromide],–,2000 nM,40 nM
CC1(C)c2cccc3c2[C@@H](CNC3)c2ccc(O)c(O)c21 (racemic) [NSC_0],390 nM,870 nM,–
CCCCC1NC[C@H]2c3ccc(O)c(O)c3Cc3cccc1c32 (mixture of isomers) [(+/-)-3-n-butyldinapsoline hydrobromide],–,299 nM,–
"Oc1ccc2c(c1O)Sc1cccc3c1C2CNC3 (centres undefined) [1,2,3,11b-Tetrahydro[1]benzothiopyrano[4,3,2-de]isoquinolin-8,9-diol]",34.5 nM,536 nM,–
CCCN1Cc2cccc3c2[C@@H](C1)c1ccc(O)c(O)c1C3 (racemic) [(+/-)-2-propyldinapsoline hydrobromide],–,2000 nM,15 nM
CC1c2cccc3c2[C@@H](CN1C)c1ccc(O)c(O)c1C3 (mixture of isomers) [NSC_0],–,9500 nM,> 10000 nM
Oc1ccc2c(c1O)Cc1c(F)ccc3c1[C@H]2CNC3 [NSC_0],7 nM,–,–
Oc1ccc2c(c1O)Cc1ccc(O)c3c1[C@H]2CNC3 [4-hydroxydinapsoline hydrobromide],15 nM,72 nM,–
CN1Cc2cccc3c2[C@@H](C1)c1ccc(O)c(O)c1C3 (racemic) [NSC_0],70 nM,382 nM,–
O=[N+]([O-])c1cc(O)c(O)c2c1[C@@H]1CNCc3cccc(c31)C2 (racemic) [NSC_0],1100 nM,> 10000 nM,–
